Measurements from PubChem BioAssay (NCI).
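Following 48 hours of exposure in 96-well plates, responses at five concentrations were used to interpolate endpoints linearly. Here, GI50 denotes the concentration required for 50% inhibition of growth. TGI marks complete inhibition of growth.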

Experiments:
Test in all cases: NCI tumour cell line growth inhibition, 48 h
786-0 renal = tested on: 786-0 renal
A498 renal = tested on: A498 renal
A549 NSCLC = tested on: A549 NSCLC
ACHN renal = tested on: ACHN renal
BT-549 breast = tested on: BT-549 breast
CAKI-1 renal = tested on: CAKI-1 renal
CCRF-CEM leukemia = tested on: CCRF-CEM leukemia
COLO 205 colon = tested on: COLO 205 colon
DU-145 prostate = tested on: DU-145 prostate
EKVX NSCLC = tested on: EKVX NSCLC
HCC-2998 colon = tested on: HCC-2998 colon
HCT-116 colon = tested on: HCT-116 colon
HCT-15 colon = tested on: HCT-15 colon
HL-60(TB) leukemia = tested on: HL-60(TB) leukemia
HOP-62 NSCLC = tested on: HOP-62 NSCLC
HOP-92 NSCLC = tested on: HOP-92 NSCLC
HS 578T breast = tested on: HS 578T breast
HT29 colon = tested on: HT29 colon
IGROV1 ovarian = tested on: IGROV1 ovarian
K-562 leukemia = tested on: K-562 leukemia
KM12 colon = tested on: KM12 colon
LOX IMVI melanoma = tested on: LOX IMVI melanoma
M14 melanoma = tested on: M14 melanoma
MALME-3M melanoma = tested on: MALME-3M melanoma
MCF7 breast = tested on: MCF7 breast
MDA-MB-231 breast = tested on: MDA-MB-231 breast
MDA-MB-435 = tested on: MDA-MB-435
MOLT-4 leukemia = tested on: MOLT-4 leukemia
NCI-H226 lung = tested on: NCI-H226 lung
NCI-H23 lung = tested on: NCI-H23 lung
NCI-H460 lung = tested on: NCI-H460 lung
NCI-H522 lung = tested on: NCI-H522 lung
NCI/ADR-RES ovarian = tested on: NCI/ADR-RES ovarian
OVCAR-3 ovarian = tested on: OVCAR-3 ovarian
OVCAR-4 ovarian = tested on: OVCAR-4 ovarian
OVCAR-5 ovarian = tested on: OVCAR-5 ovarian
OVCAR-8 ovarian = tested on: OVCAR-8 ovarian
PC-3 prostate = tested on: PC-3 prostate
RPMI-8226 leukemia = tested on: RPMI-8226 leukemia
RXF 393 renal = tested on: RXF 393 renal
SF-268 CNS = tested on: SF-268 CNS
SF-295 CNS = tested on: SF-295 CNS
SK-MEL-2 melanoma = tested on: SK-MEL-2 melanoma
SK-MEL-28 melanoma = tested on: SK-MEL-28 melanoma
SK-MEL-5 melanoma = tested on: SK-MEL-5 melanoma
SK-OV-3 ovarian = tested on: SK-OV-3 ovarian
SN12C renal = tested on: SN12C renal
SNB-19 CNS = tested on: SNB-19 CNS
SNB-75 CNS = tested on: SNB-75 CNS
SR leukemia = tested on: SR leukemia
SW-620 colon = tested on: SW-620 colon
T-47D breast = tested on: T-47D breast
TK-10 renal = tested on: TK-10 renal
U251 CNS = tested on: U251 CNS
UACC-257 melanoma = tested on: UACC-257 melanoma
UACC-62 melanoma = tested on: UACC-62 melanoma
UO-31 renal = tested on: UO-31 renal

In the case of Cc1ccc(/C=C2\COc3ccc(O)c(O)c3C2=O)cc1, the GI50 (786-0 renal) is reported as 555 nM, the TGI (786-0 renal) is reported as 2490 nM and the GI50 (A498 renal) is reported as 249 nM. For the same compound, the TGI (A498 renal) was 1950 nM, the GI50 (A549 NSCLC) was 2330 nM and the TGI (A549 NSCLC) was 11.5 µM. For the same compound, the GI50 (ACHN renal) was 639 nM, the TGI (ACHN renal) was 2000 nM and the GI50 (BT-549 breast) was 585 nM. The TGI (BT-549 breast) was 2640 nM, the GI50 (CAKI-1 renal) was 765 nM and the TGI (CAKI-1 renal) was 2200 nM. For the same compound, the GI50 (CCRF-CEM leukemia) was 265 nM, the TGI (CCRF-CEM leukemia) was 1480 nM and the GI50 (COLO 205 colon) was 2000 nM. The TGI (COLO 205 colon) was 3.95 µM, the GI50 (DU-145 prostate) was 394 nM and the TGI (DU-145 prostate) was 1710 nM. It also gave a GI50 (EKVX NSCLC) of 1280 nM, a TGI (EKVX NSCLC) of 4.14 µM and a GI50 (HCC-2998 colon) of 1690 nM. The TGI (HCC-2998 colon) was 3.28 µM, the GI50 (HCT-116 colon) was 1280 nM and the TGI (HCT-116 colon) was 2930 nM. For the same compound, the GI50 (HCT-15 colon) was 352 nM, the TGI (HCT-15 colon) was 6.41 µM and the GI50 (HL-60(TB) leukemia) was 421 nM. The TGI (HL-60(TB) leukemia) was 2140 nM, the GI50 (HOP-62 NSCLC) was 1440 nM and the TGI (HOP-62 NSCLC) was 6.64 µM. It also gave a GI50 (HOP-92 NSCLC) of 887 nM, a TGI (HOP-92 NSCLC) of 5.77 µM and a GI50 (HS 578T breast) of 362 nM. For the same compound, the TGI (HS 578T breast) was > 26.4 µM, the GI50 (HT29 colon) was 2780 nM and the TGI (HT29 colon) was 9.05 µM. It also gave a GI50 (IGROV1 ovarian) of 559 nM, a TGI (IGROV1 ovarian) of 2620 nM and a GI50 (K-562 leukemia) of 329 nM. The TGI (K-562 leukemia) was > 100 µM, the GI50 (KM12 colon) was 838 nM and the TGI (KM12 colon) was 3 µM. It also gave a GI50 (LOX IMVI melanoma) of 329 nM, a TGI (LOX IMVI melanoma) of 1340 nM and a GI50 (M14 melanoma) of 292 nM. The TGI (M14 melanoma) was 1060 nM, the GI50 (MALME-3M melanoma) was 909 nM and the TGI (MALME-3M melanoma) was 3.15 µM. The GI50 (MCF7 breast) was 375 nM, the TGI (MCF7 breast) was 9.76 µM and the GI50 (MDA-MB-231 breast) was 340 nM. It also gave a TGI (MDA-MB-231 breast) of 3.78 µM, a GI50 (MDA-MB-435) of 233 nM and a TGI (MDA-MB-435) of 764 nM. The GI50 (MOLT-4 leukemia) was 403 nM, the TGI (MOLT-4 leukemia) was > 29.6 µM and the GI50 (NCI-H226 lung) was 2130 nM. It also gave a TGI (NCI-H226 lung) of 6.24 µM, a GI50 (NCI-H23 lung) of 1450 nM and a TGI (NCI-H23 lung) of 3.8 µM. For the same compound, the GI50 (NCI-H460 lung) was 1840 nM, the TGI (NCI-H460 lung) was 5 µM and the GI50 (NCI-H522 lung) was 185 nM. For the same compound, the TGI (NCI-H522 lung) was 461 nM, the GI50 (NCI/ADR-RES ovarian) was 343 nM and the TGI (NCI/ADR-RES ovarian) was > 100 µM. The GI50 (OVCAR-3 ovarian) was 386 nM, the TGI (OVCAR-3 ovarian) was 1400 nM and the GI50 (OVCAR-4 ovarian) was 1470 nM. The TGI (OVCAR-4 ovarian) was 4.96 µM, the GI50 (OVCAR-5 ovarian) was 1750 nM and the TGI (OVCAR-5 ovarian) was 3.98 µM. For the same compound, the GI50 (OVCAR-8 ovarian) was 404 nM, the TGI (OVCAR-8 ovarian) was > 100 µM and the GI50 (PC-3 prostate) was 505 nM. The TGI (PC-3 prostate) was 3.74 µM, the GI50 (RPMI-8226 leukemia) was 252 nM and the TGI (RPMI-8226 leukemia) was 818 nM. It also gave a GI50 (RXF 393 renal) of 372 nM, a TGI (RXF 393 renal) of 1160 nM and a GI50 (SF-268 CNS) of 1120 nM. It also gave a TGI (SF-268 CNS) of 3.35 µM, a GI50 (SF-295 CNS) of 2040 nM and a TGI (SF-295 CNS) of 9.64 µM. The GI50 (SK-MEL-2 melanoma) was 555 nM, the TGI (SK-MEL-2 melanoma) was 3.65 µM and the GI50 (SK-MEL-28 melanoma) was 933 nM. The TGI (SK-MEL-28 melanoma) was 2830 nM, the GI50 (SK-MEL-5 melanoma) was 320 nM and the TGI (SK-MEL-5 melanoma) was 1260 nM. For the same compound, the GI50 (SK-OV-3 ovarian) was 395 nM, the TGI (SK-OV-3 ovarian) was 35.1 µM and the GI50 (SN12C renal) was 370 nM. For the same compound, the TGI (SN12C renal) was 2330 nM, the GI50 (SNB-19 CNS) was 1320 nM and the TGI (SNB-19 CNS) was 3.27 µM. It also gave a GI50 (SNB-75 CNS) of 322 nM, a TGI (SNB-75 CNS) of 3.48 µM and a GI50 (SR leukemia) of 358 nM. The TGI (SR leukemia) was > 100 µM, the GI50 (SW-620 colon) was 854 nM and the TGI (SW-620 colon) was 3.11 µM. For the same compound, the GI50 (T-47D breast) was 951 nM, the TGI (T-47D breast) was 6.94 µM and the GI50 (TK-10 renal) was 1470 nM. For the same compound, the TGI (TK-10 renal) was 3.44 µM, the GI50 (U251 CNS) was 922 nM and the TGI (U251 CNS) was 2290 nM. For the same compound, the GI50 (UACC-257 melanoma) was 1550 nM, the TGI (UACC-257 melanoma) was 5.38 µM and the GI50 (UACC-62 melanoma) was 407 nM. For the same compound, the TGI (UACC-62 melanoma) was 1650 nM, the GI50 (UO-31 renal) was 465 nM and the TGI (UO-31 renal) was 1800 nM.
